These results are taken from patent US10981858B2, “Dendrimer and formulations thereof” (Priostar Pty Ltd, priority 2015, dated 2021).

The data set is described as follows: 2,4-D/dendrimer hard water testing (clarity, sedimentation). Type of data set: physicochemical. The settings on record: 30° C.; for Appearance at Addition / Appearance/Sedimentation After 24 Hrs.: 2,4-D Amine in 342 ppm hard water. On the procedure:
342 ppm hard water was prepared as per CIPAC method MT18. The hard water was heated to 30° C. […]

In the case of `OCCN(CCO)CC(O)COCC(COCC(O)CN(CCO)CCO)(COCC(O)CN(CCO)CCO)COCC(COCC(O)CN(CCO)CCO)(COCC(O)CN(CCO)CCO)COCC(O)CN(CCO)CCO` (stereo not shown) [Compound 4, 9,9′-(Oxybis(methylene))bis(9-((3-(bis(2-hydroxyethyl)amino)-2-hydroxypropoxy)methyl)-3,15-bis(2-hydroxyethyl)-7,11-dioxa-3,15-diazaheptadecane-1,5,13,17-tetraol)], the “Appearance at Addition” value reads like this: (dendrimer 1.4% (w/w), 0.6% DEG) “Clear”; (dendrimer 2% (w/w)) “Clear”; (dendrimer 3.5% (w/w), 1.5% DEG) “Clear”; (dendrimer 5% (w/w)) “Clear”; (dendrimer 7% (w/w), 3% DEG) “Clear”; (dendrimer 10% (w/w)) “Clear”. Besides, the “Appearance/Sedimentation After 24 Hrs.” value (dendrimer 1.4% (w/w), 0.6% DEG) is recorded as “Clear”; the “Appearance/Sedimentation After 24 Hrs.” value (dendrimer 2% (w/w)) is “Clear”; the “Appearance/Sedimentation After 24 Hrs.” value (dendrimer 3.5% (w/w), 1.5% DEG) is on record as “Clear”; the “Appearance/Sedimentation After 24 Hrs.” value (dendrimer 5% (w/w)) was “Clear”; the “Appearance/Sedimentation After 24 Hrs.” value (dendrimer 7% (w/w), 3% DEG) is recorded as “Clear”; the “Appearance/Sedimentation After 24 Hrs.” value (dendrimer 10% (w/w)) is given as “Clear”. Further, the “Appearance of 2,4-D solutions in hard water” value (all concentrations tested (from 1.4 to 10%), 342 ppm hard water, 24 hours) is reported as “clear”.
